Tests used:
Type in all cases: biochemical
JAK2 = target: T1, JAK2 (Homo sapiens, UniProt O60674); assay: Z'-LYTE kinase assay, JAK2 tyrosine phosphorylation activity
T1 construct: 5 μl of catalytic domain recombinant Kinase enzyme+Tyr peptide substrate (Invitrogen, Calif.); purchased Invitrogen
Protocol: (§1) JAK and TYK2 tyrosine phosphorylation activity is measured using the Z′-LYTE™ Technology developed by Invitrogen Corporation (Carlsbad, Calif.). For JAK1, JAK2 and JAK3 the Z′-LYTE™ Kinase Assay Kit-Tyr6 Peptide (part number PV4122) was used. For TYK2 the Z′-LYTE™ Kinase Assay Kit-Tyr6 Peptide (part number PV3192) was used. The Z′-LYTE™ biochemical assay employs a fluorescence resonance energy transfer (FRET) coupled-enzyme format and is based on the differential sensitivity of phosphorylated and non-phosphorylated peptides to proteolitic cleavage. The assay uses a synthetic peptide substrate that is labelled with a donor fluorophore (coumarin) and an acceptor fluorophore (fluorescein) that make up a FRET pair. In the primary reaction (the Kinase Reaction), the kinase transfers the γ-phosphate of ATP to a single tyrosine residue on the substrate, while the presence of a kinase inhibitor in the primary reaction suppresses phosphorylation. In the secondary reaction (the Development Reaction), a site-specific protease (the Development Reagent) is added. The development buffer quenches the Kinase Reaction, while the protease recognizes and cleaves non-phosphorylated Z′-LYTE™ peptide substrate. Cleavage disrupts FRET between the donor and acceptor fluorophores on the non-phosphoryleted substrate, while uncleaved, phosphorylated substrate maintains FRET.
(§2) To test the ability of candidate molecules to inhibit JAK tyrosine phosphorylation activity, molecules are reconstituted in 100% DMSO and serially diluted 1:10 in polypropylene v-bottom microtiter plates. The candidate molecules are then diluted 1:25 into kinase buffer and 2.5 μl transferred into duplicate wells of a 384 well low volume black microtiter assay plate (Corning, USA). The final DMSO concentration in the assay is 1%. The kinase reaction contains 2.5 μl of a candidate molecule, 5 μl of catalytic domain recombinant Kinase enzyme+Tyr peptide substrate (Invitrogen, Calif.) and 2.5 μl ATP (Invitrogen, Calif.). The kinase reaction is allowed to procede for 1 hour at room temperature. The protease reaction is initiated by the addition of 5 μl Development Reagent (Invitrogen, Calif.). After 1 hour incubation at room temperature the fluorescence is measured using a FlexStation plate reader (Molecular Devices, Sunnyvale, Calif.). The reader settings used are as follows: Fluorescence mode, endpoint, top read, excitation 400 nm, emission 445 nm and 520 nm, Auto Cutoff 435 nm and 515 nm, PMT sensitivity high, 6 reads per well. Inhibition of JAK activity is calculated as the percent phosphorylation of substrate in the presence of inhibitor compared to the percent phosphorylation of substrate in the absence of inhibitor. IC50's were derived using Xlfit 4.3 (IDBS, UK), 4 parameter logistic model 205: Y=(A+((B−A)/(1+((C/x)^D)))).

JAK3 = target: T2, JAK3 (Homo sapiens, UniProt P52333); assay: Z'-LYTE kinase assay, JAK3 tyrosine phosphorylation activity
T2 construct: 5 μl of catalytic domain recombinant Kinase enzyme+Tyr peptide substrate (Invitrogen, Calif.); purchased Invitrogen
Protocol: as §1, §2

JAK1 = target: T3, JAK1 (Homo sapiens, UniProt P23458); assay: Z'-LYTE kinase assay, JAK1 tyrosine phosphorylation activity; conditions: read-out: JAK 1 IC50
T3 construct: 5 μl of catalytic domain recombinant Kinase enzyme+Tyr peptide substrate (Invitrogen, Calif.); purchased Invitrogen
Protocol: as §1, §2

TYK2 = target: T4, TYK2 (Homo sapiens, UniProt P29597); assay: Z'-LYTE kinase assay, TYK2 tyrosine phosphorylation activity
T4 construct: 5 μl of catalytic domain recombinant Kinase enzyme+Tyr peptide substrate (Invitrogen, Calif.); purchased Invitrogen
T4 sequence (P29597 897-1176 limits assumed): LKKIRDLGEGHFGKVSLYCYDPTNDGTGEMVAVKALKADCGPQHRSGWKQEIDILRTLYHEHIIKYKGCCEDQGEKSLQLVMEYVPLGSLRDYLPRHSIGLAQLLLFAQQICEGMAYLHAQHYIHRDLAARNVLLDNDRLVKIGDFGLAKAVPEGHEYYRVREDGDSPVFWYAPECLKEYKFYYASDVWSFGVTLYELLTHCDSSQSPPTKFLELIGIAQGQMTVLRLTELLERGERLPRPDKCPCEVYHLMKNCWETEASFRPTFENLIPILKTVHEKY
Protocol: as §1, §2

T3 sequence (P23458 875-1153 limits assumed): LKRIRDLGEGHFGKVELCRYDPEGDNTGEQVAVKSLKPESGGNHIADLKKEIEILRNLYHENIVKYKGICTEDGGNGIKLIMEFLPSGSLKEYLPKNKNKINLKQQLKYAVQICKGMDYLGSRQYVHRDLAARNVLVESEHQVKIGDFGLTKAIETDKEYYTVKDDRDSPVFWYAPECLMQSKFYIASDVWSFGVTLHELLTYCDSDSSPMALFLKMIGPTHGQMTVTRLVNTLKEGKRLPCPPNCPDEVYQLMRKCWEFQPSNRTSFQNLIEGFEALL
T2 sequence (P52333 822-1111 limits assumed): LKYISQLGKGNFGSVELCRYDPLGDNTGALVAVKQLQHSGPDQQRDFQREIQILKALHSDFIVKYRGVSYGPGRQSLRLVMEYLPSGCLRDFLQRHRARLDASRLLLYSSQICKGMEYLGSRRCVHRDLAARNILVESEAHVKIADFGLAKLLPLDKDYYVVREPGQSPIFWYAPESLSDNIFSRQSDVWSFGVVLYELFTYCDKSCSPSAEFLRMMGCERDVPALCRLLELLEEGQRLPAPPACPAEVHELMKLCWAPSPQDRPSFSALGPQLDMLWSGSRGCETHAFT
T1 sequence (O60674 849-1124 limits assumed): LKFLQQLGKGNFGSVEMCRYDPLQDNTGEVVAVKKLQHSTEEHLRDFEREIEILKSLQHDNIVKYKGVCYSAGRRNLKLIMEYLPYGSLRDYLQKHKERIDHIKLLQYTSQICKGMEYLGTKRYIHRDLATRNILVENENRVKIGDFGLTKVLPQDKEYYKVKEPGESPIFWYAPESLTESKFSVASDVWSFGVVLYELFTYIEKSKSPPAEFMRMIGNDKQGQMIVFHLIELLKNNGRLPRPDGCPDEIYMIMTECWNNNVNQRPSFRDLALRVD

| Structure (SMILES) | IC50 (JAK2) [nM] | IC50 (JAK3) [nM] | IC50 (JAK1) [nM] | IC50 (TYK2) [nM] |
| --- | --- | --- | --- | --- |
| CNC(=O)Nc1cc(Nc2ncc(C(N)=O)c(NCC3CC3)n2)ccc1Cl [Example 178, 2-(4-chloro-3-(3-methylureido)phenylamino)-4-(cyclopropylmethylamino)pyrimidine-5-carboxamide] | 10 to 100 | 10 to 100 | 100 to 1000 | 10 to 100 |
| CNC(=O)c1cnc(Nc2cccc(NC(=O)COC)c2)nc1NCc1ccccc1 [Example 113, 4-(benzylamino)-2-(3-(2-methoxyacetamido)phenylamino)-N-methylpyrimidine-5-carboxamide] | > 1000 | 100 to 1000 | > 1000 | 100 to 1000 |
| CNC(=O)Nc1cc(Nc2ncc(C(N)=O)c(NC3CCCC3)n2)ccc1Cl [Example 166, 2-(4-chloro-3-(3-methylureido)phenylamino)-4-(cyclopentylamino)pyrimidine-5-carboxamide] | 10 to 100 | 10 to 100 | 10 to 100 | 10 to 100 |
| CC[C@H](C)Nc1nc(Nc2ccc(Cl)c(NC(=O)NC)c2)ncc1C(N)=O [Example 175, (S)-4-(sec-butylamino)-2-(4-chloro-3-(3-methylureido)phenylamino)pyrimidine-5-carboxamide] | 100 to 1000 | 10 to 100 | 100 to 1000 | 10 to 100 |
| COCC(=O)Nc1cccc(Nc2ncc(C(N)=O)c(NCc3ccc(F)cc3)n2)c1 [Example 104, 4-(4-fluorobenzylamino)-2-(3-(2-methoxyacetamido)phenylamino)pyrimidine-5-carboxamide] | 10 to 100 | 10 to 100 | 100 to 1000 | 10 to 100 |
| C[C@@H](Nc1nc(Nc2ccc(Cl)c(NC(=O)NC3CCC3)c2)ncc1C(N)=O)c1ccccc1 [Example 111, (R)-2-(4-chloro-3-(3-cyclobutylureido)phenylamino)-4-(1-phenylethylamino)pyrimidine-5-carboxamide] | > 1000 | 100 to 1000 | > 1000 | 100 to 1000 |
| CC(=O)Nc1cccc(Nc2ncc(C(N)=O)c(N[C@H](C)C(N)=O)n2)c1 [Example 91, (R)-2-(3-acetamidophenylamino)-4-(1-amino-1-oxopropan-2-ylamino)pyrimidine-5-carboxamide] | 10 to 100 | 10 to 100 | 10 to 100 | 10 to 100 |
| CC[C@H](C)Nc1nc(Nc2cccc(NC(=O)COC)c2)ncc1C(N)=O [Example 144, (S)-4-(sec-butylamino)-2-(3-(2-methoxyacetamido)phenylamino)pyrimidine-5-carboxamide] | 100 to 1000 | 10 to 100 | 100 to 1000 | 10 to 100 |
| CN(C(=O)N1CCCC1)c1cccc(Nc2ncc(C(N)=O)c(NCC3CC3)n2)c1 [Example 127, 4-(cyclopropylmethylamino)-2-(3-(N-methylpyrrolidine-1-carboxamido)phenylamino)pyrimidine-5-carboxamide] | 10 to 100 | 10 to 100 | 100 to 1000 | 100 to 1000 |
| NC(=O)c1cnc(Nc2cccc(NC(=O)N3CCC[C@@H](O)C3)c2)nc1NCc1ccccc1 [Example 212, (R)-4-(benzylamino)-2-(3-(3-hydroxypiperidine-1-carboxamido)phenylamino)pyrimidine-5-carboxamide] | 100 to 1000 | 100 to 1000 |  | 100 to 1000 |

Results, then the compound that gave them:

| IC50 (JAK2) [nM] | IC50 (JAK3) [nM] | IC50 (JAK1) [nM] | IC50 (TYK2) [nM] | Structure (SMILES) |
| --- | --- | --- | --- | --- |
| 100 to 1000 | 100 to 1000 | > 1000 | > 1000 | CC(=O)Nc1cccc(Nc2cc(NCc3ccc(F)cc3)c(C(N)=O)cn2)c1 [Example 332, 6-(3-acetamidophenylamino)-4-(4-fluorobenzylamino)nicotinamide] |
| 100 to 1000 | 10 to 100 | 100 to 1000 | 10 to 100 | CC(C)CCNc1cc(Nc2cccc(NC(=O)N3CCCC3)c2)ncc1C(N)=O [Example 328, 4-(isopentylamino)-6-(3-(pyrrolidine-1-carboxamido)phenylamino)nicotinamide] |
| 100 to 1000 | 10 to 100 | 100 to 1000 | 100 to 1000 | CC(=O)Nc1cccc(Nc2cc(N[C@H](C)c3ccccc3)c(C(N)=O)cn2)c1 [Example 322, (R)-6-(3-acetamidophenylamino)-4-(1-phenylethylamino)nicotinamide] |
| 100 to 1000 | 1 to 10 | 100 to 1000 | 10 to 100 | NC(=O)c1cnc(Nc2cccc(NC(=O)N3CCCC3)c2)cc1NCc1ccccc1 [Example 326, 4-(benzylamino)-6-(3-(pyrrolidine-1-carboxamido)phenylamino)nicotinamide] |
| 1 to 10 | < 1 | 1 to 10 | 1 to 10 | CC[C@@H](C)Nc1nc(Nc2cccc(NC(C)=O)c2)ncc1C(N)=O [Example 238, (R)-2-(3-acetamidophenylamino)-4-(sec-butylamino)pyrimidine-5-carboxamide] |
| 1 to 10 | 1 to 10 | 10 to 100 | 10 to 100 | C[C@@H](Nc1nc(Nc2cccc(NC(=O)N3CCN(C)CC3)c2)ncc1C(N)=O)c1ccccc1 [Example 254, (R)-2-(3-(4-methylpiperazine-1-carboxamido)phenylamino)-4-(1-phenylethylamino)pyrimidine-5-carboxamide] |
| 100 to 1000 | 1 to 10 | > 1000 |  | NC(=O)c1cnc(Nc2cccc(NC(=O)N3CCCC3)c2)cc1NCc1cc(F)cc(F)c1 [Example 341, 4-(3,5-difluorobenzylamino)-6-(3-(pyrrolidine-1-carboxamido)phenylamino)nicotinamide] |
| 100 to 1000 | 1 to 10 | 100 to 1000 |  | CC(=O)Nc1cccc(Nc2cc(NCc3cccc(F)c3)c(C(N)=O)cn2)c1 [Example 310, 6-(3-acetamidophenylamino)-4-(3-fluorobenzylamino)nicotinamide] |
| 100 to 1000 | 1 to 10 | > 1000 |  | NC(=O)c1cnc(Nc2ccc(F)c(NC(=O)N3CCC3)c2)cc1N[C@H](CO)c1ccccc1 [Example 311, (S)-6-(3-(azetidine-1-carboxamido)-4-fluorophenylamino)-4-(2-hydroxy-1-phenylethylamino)nicotinamide] |
| 100 to 1000 | 1 to 10 | 100 to 1000 |  | NC(=O)c1cnc(Nc2cccc(NC(=O)N3CCOCC3)c2)cc1N[C@H](CO)c1ccccc1 [Example 314, (S)—N-(3-(5-carbamoyl-4-(2-hydroxy-1-phenylethylamino)pyridin-2-ylamino)phenyl)morpholine-4-carboxamide] |
| > 1000 | 10 to 100 | > 1000 |  | NC(=O)c1cnc(Nc2ccc(F)c(NC(=O)N3CCCC3)c2)cc1NCc1cccnc1 [Example 304, 6-(4-fluoro-3-(pyrrolidine-1-carboxamido)phenylamino)-4-(pyridin-3-ylmethylamino)nicotinamide] |
| 100 to 1000 | 10 to 100 | > 1000 |  | CN(C)[C@@H]1CCN(C(=O)Nc2cccc(Nc3cc(NCc4cccnc4)c(C(N)=O)cn3)c2)C1 [Example 318, (R)-6-(3-(3-(dimethylamino)pyrrolidine-1-carboxamido)phenylamino)-4-(pyridin-3-ylmethylamino)nicotinamide] |
| 100 to 1000 | 10 to 100 | > 1000 |  | NC(=O)c1cnc(Nc2cccc(NC(=O)N3CCOCC3)c2)cc1NCc1cccnc1 [Example 319, N-(3-(5-carbamoyl-4-(pyridin-3-ylmethylamino)pyridin-2-ylamino)phenyl)morpholine-4-carboxamide] |
| 100 to 1000 | 10 to 100 | 100 to 1000 |  | NC(=O)c1cnc(Nc2ccc(F)c(NC(=O)N3CCCC3)c2)cc1NCc1cccc(F)c1 [Example 307] |
